Results reported in patent US11649255B2, “Indazoles as hematopoietic progenitor kinase 1 (HPK1) inhibitors and methods using same” (1st Biotherapeutics, Inc., priority 2020, dated 2023).

Target: recombinant human HPK1 (Homo sapiens (Human), UniProt Q92918)
Experiment: HPK1 kinase assay (ADP-Glo)
Assay type: biochemical
Conditions: 25 μM ATP, MBP substrate
In short: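 Activity was read as ADP formed, detected by ADP-Glo luminescence after the reaction of 5 ng recombinant human HPK1 with MBP and ATP (stocks 0.5 μg/μl and 25 μM) for 40 min at 30 °C. Buffer was Tris pH 7.5 with MgCl2, BSA and DTT, with compound in 0.5% DMSO. IC50 came from inhibition curves.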

recombinant human HPK1, sequence (Q92918 whole entry): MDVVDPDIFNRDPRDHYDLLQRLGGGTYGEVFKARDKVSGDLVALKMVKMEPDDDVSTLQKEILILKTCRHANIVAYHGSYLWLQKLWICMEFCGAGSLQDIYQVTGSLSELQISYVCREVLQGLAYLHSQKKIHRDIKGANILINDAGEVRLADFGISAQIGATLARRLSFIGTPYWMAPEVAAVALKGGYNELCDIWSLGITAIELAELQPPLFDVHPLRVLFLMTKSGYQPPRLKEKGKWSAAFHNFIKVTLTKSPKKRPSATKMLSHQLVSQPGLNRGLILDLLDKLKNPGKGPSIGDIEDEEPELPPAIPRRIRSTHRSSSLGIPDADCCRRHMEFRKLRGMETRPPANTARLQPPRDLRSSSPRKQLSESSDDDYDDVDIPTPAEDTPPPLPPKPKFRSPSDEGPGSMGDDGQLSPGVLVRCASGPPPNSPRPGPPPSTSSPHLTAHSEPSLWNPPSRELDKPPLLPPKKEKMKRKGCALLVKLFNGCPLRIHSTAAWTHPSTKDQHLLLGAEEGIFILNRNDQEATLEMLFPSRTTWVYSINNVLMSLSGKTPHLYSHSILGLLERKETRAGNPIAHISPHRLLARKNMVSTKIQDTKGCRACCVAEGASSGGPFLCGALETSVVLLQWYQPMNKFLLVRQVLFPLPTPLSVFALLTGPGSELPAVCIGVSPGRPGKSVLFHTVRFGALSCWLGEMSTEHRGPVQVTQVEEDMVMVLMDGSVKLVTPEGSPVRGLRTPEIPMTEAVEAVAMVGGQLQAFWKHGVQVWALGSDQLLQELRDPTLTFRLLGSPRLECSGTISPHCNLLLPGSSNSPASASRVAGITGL

Structure (SMILES) | IC50
CCOc1c(F)cc2[nH]ncc2c1-c1ccc2nc(NC(=O)[C@@H]3C[C@@H]3F)cn2c1 [Example 328, (1S,2S)-N-(6-(5-ethoxy-6-fluoro-1H-indazol-4-yl)imidazo[1,2-a]pyridin-2-yl)-2-fluorocyclopropane-1-carboxamide] | < 100 nM
CCOc1c(F)c(Cl)c(-c2ccc3nc(NC(=O)[C@@H]4C[C@@H]4F)cn3c2)c2cn[nH]c12 [Example 275, (1S,2S)-N-(6-(5-chloro-7-ethoxy-6-fluoro-1H-indazol-4-yl)imidazo[1,2-a]pyridin-2-yl)-2-fluorocyclopropane-1-carboxamide] | < 100 nM
CN(C)C(=O)c1c(F)cc(-c2ccc3nc(NC(=O)[C@@H]4C[C@@H]4F)cn3c2)c2cn[nH]c12 [Example 354, 6-fluoro-4-(2-((1S,2S)-2-fluorocyclopropane-1-carboxamido)imidazo[1,2-a]pyridin-6-yl)-N,N-dimethyl-1H-indazole-7-carboxamide] | > 1000 nM
CSc1ccc(-c2ccc3nc(NC(=O)[C@@H]4C[C@@H]4F)cn3c2)c2cn[nH]c12 [Example 340, (1S,2S)-2-fluoro-N-(6-(7-(methylthio)-1H-indazol-4-yl)imidazo[1,2-a]pyridin-2-yl)cyclopropane-1-carboxamide] | 101 to 500 nM
Cc1ccc2[nH]ncc2c1-c1ccc2nc(NC(=O)[C@@H]3C[C@@H]3F)cn2c1 [Example 221, (1S,2S)-2-fluoro-N-(6-(5-methyl-1H-indazol-4-yl)imidazo[1,2-a]pyridin-2-yl)cyclopropane-1-carboxamide] | 101 to 500 nM
NCC1CCN(c2c(F)c(Cl)c(-c3ccc4nc(NC(=O)[C@@H]5C[C@@H]5F)sc4c3)c3cn[nH]c23)C1 (stereo partly drawn) [Example 91, (1S,2S)-N-(6-(7-(3-(aminomethyl)pyrrolidin-1-yl)-5-chloro-6-fluoro-1H-indazol-4-yl)benzo[d]thiazol-2-yl)-2-fluorocyclopropanecarboxamide] | 101 to 500 nM
CCN(C)c1c(F)c(SC)c(-c2ccc3nc(NC(=O)[C@@H]4C[C@@H]4F)sc3c2)c2cn[nH]c12 [Example 138, (1S,2S)-N-(6-(7-(ethyl(methyl)amino)-6-fluoro-5-(methylthio)-1H-indazol-4-yl)benzo[d]thiazol-2-yl)-2-fluorocyclopropane-1-carboxamide] | < 100 nM
O=C(NCc1ccsc1)c1ccc2[nH]ncc2c1-c1ccc2nc(NC(=O)C3CC3)sc2c1 [Example 23, 4-(2-(cyclopropanecarboxamido)benzo[d]thiazol-6-yl)-N-(thiophen-3-ylmethyl)-1H-indazole-5-carboxamide] | > 1000 nM
CC(=O)N(C)c1c(F)c(C)c(-c2ccc3nc(NC(=O)[C@@H]4C[C@@H]4F)sc3c2)c2cn[nH]c12 [Example 120, (1S,2S)-2-fluoro-N-(6-(6-fluoro-5-methyl-7-(N-methylacetamido)-1H-indazol-4-yl)benzo[d]thiazol-2-yl)cyclopropane-1-carboxamide] | < 100 nM
O=C(Nc1cn2cc(-c3c(Cl)c(F)c(N4CCCC4)c4[nH]ncc34)ccc2n1)[C@@H]1C[C@@H]1F [Example 282, (1S,2S)-N-(6-(5-chloro-6-fluoro-7-(pyrrolidin-1-yl)-1H-indazol-4-yl)imidazo[1,2-a]pyridin-2-yl)-2-fluorocyclopropane-1-carboxamide] | < 100 nM
CNNc1c(F)c(Cl)c(-c2ccc3nc(NC(=O)[C@@H]4C[C@@H]4F)sc3c2)c2cn[nH]c12 [Example 115, (1S,2S)-N-(6-(5-chloro-6-fluoro-7-(2-methylhydrazineyl)-1H-indazol-4-yl)benzo[d]thiazol-2-yl)-2-fluorocyclopropane-1-carboxamide] | < 100 nM
CN(CCO)c1c(F)c(Cl)c(-c2ccc3nc(NC(=O)[C@@H]4C[C@@H]4F)sc3c2)c2cn[nH]c12 [Example 93, (1S,2S)-N-(6-(5-chloro-6-fluoro-7-((2-hydroxyethyl)(methyl)amino)-1H-indazol-4-yl)benzo[d]thiazol-2-yl)-2-fluorocyclopropanecarboxamide] | < 100 nM
CNNc1c(F)c(Cl)c(-c2ccc3nc(NC(=O)[C@@H]4C[C@@H]4F)sc3n2)c2cn[nH]c12 [Example 191, (1S,2S)-N-(5-(5-chloro-6-fluoro-7-(2-methylhydrazineyl)-1H-indazol-4-yl)thiazolo[5,4-b]pyridin-2-yl)-2-fluorocyclopropane-1-carboxamide] | < 100 nM
Cc1c(F)c(C(=O)N(C)C)c2[nH]ncc2c1-c1ccc2nc(NC(=O)[C@@H]3C[C@@H]3F)sc2n1 [Example 197, 6-fluoro-4-(2-((1S,2S)-2-fluorocyclopropane-1-carboxamido)thiazolo[5,4-b]pyridin-5-yl)-N,N,5-trimethyl-1H-indazole-7-carboxamide] | < 100 nM

Results, then the compound that gave them:

IC50 | Structure (SMILES)
< 100 nM | Cc1c(F)c(C(F)(F)F)c2[nH]ncc2c1-c1ccn2nc(NC(=O)[C@@H]3C[C@@H]3F)cc2c1 [Example 482, (1S,2S)-2-fluoro-N-(5-(6-fluoro-5-methyl-7-(trifluoromethyl)-1H-indazol-4-yl)pyrazolo[1,5-a]pyridin-2-yl)cyclopropane-1-carboxamide]
< 100 nM | O=C(Nc1cn2cc(-c3c(Cl)c(F)c(N(C(=O)C(F)(F)F)C4CC4)c4[nH]ncc34)ccc2n1)[C@@H]1C[C@@H]1F [Example 368, (1S,2S)-N-(6-(5-chloro-7-(N-cyclopropyl-2,2,2-trifluoroacetamido)-6-fluoro-1H-indazol-4-yl)imidazo[1,2-a]pyridin-2-yl)-2-fluorocyclopropane-1-carboxamide]
< 100 nM | O=C(Nc1cc2cc(-c3c(Cl)c(F)c(N4CC[S+]([O-])CC4)c4[nH]ncc34)ccn2n1)[C@@H]1C[C@@H]1F [Example 635, (1S,2S)-N-(5-(5-chloro-6-fluoro-7-(1-oxidothiomorpholino)-1H-indazol-4-yl)pyrazolo[1,5-a]pyridin-2-yl)-2-fluorocyclopropane-1-carboxamide]
< 100 nM | CC(N)c1c(F)c(Cl)c(-c2ccc3nc(NC(=O)[C@@H]4C[C@@H]4F)cn3c2)c2cn[nH]c12 (stereo partly drawn) [Example 399, (1S,2S)-N-(6-(7-(1-aminoethyl)-5-chloro-6-fluoro-1H-indazol-4-yl)imidazo[1,2-a]pyridin-2-yl)-2-fluorocyclopropane-1-carboxamide]
< 100 nM | O=C(Nc1cc2cc(-c3c(Cl)c(F)cc4[nH]ncc34)ccn2n1)[C@@H]1C[C@@H]1F [Example 458, (1S,2S)-N-(5-(5-chloro-6-fluoro-1H-indazol-4-yl)pyrazolo[1,5-a]pyridin-2-yl)-2-fluorocyclopropane-1-carboxamide]
< 100 nM | CCOc1c(F)c(F)c2[nH]ncc2c1-c1ccn2nc(NC(=O)[C@@H]3C[C@@H]3F)cc2c1 [Example 611, (1S,2S)-N-(5-(5-ethoxy-6,7-difluoro-1H-indazol-4-yl)pyrazolo[1,5-a]pyridin-2-yl)-2-fluorocyclopropane-1-carboxamide]
< 100 nM | O=C(Nc1cc2cc(-c3c(Cl)c(F)c(-n4cccc4)c4[nH]ncc34)ccn2n1)[C@@H]1C[C@@H]1F [Example 637, (1S,2S)-N-(5-(5-chloro-6-fluoro-7-(1H-pyrrol-1-yl)-1H-indazol-4-yl)pyrazolo[1,5-a]pyridin-2-yl)-2-fluorocyclopropane-1-carboxamide]
> 1000 nM | O=C(O)c1c(F)c(Cl)c(-c2ccn3nc(NC(=O)[C@@H]4C[C@@H]4F)cc3c2)c2cn[nH]c12 [Example 551, 5-chloro-6-fluoro-4-(2-((1S,2S)-2-fluorocyclopropane-1-carboxamido)pyrazolo[1,5-a]pyridin-5-yl)-1H-indazole-7-carboxylic acid]
101 to 500 nM | C=Cc1n[nH]c2cc(F)c(C)c(-c3ccn4nc(NC(=O)[C@@H]5C[C@@H]5F)cc4c3)c12 [Example 474, (1S,2S)-2-fluoro-N-(5-(6-fluoro-5-methyl-3-vinyl-1H-indazol-4-yl)pyrazolo[1,5-a]pyridin-2-yl)cyclopropane-1-carboxamide]
101 to 500 nM | CSc1n[nH]c2cc(F)c(C)c(-c3ccn4nc(NC(=O)[C@@H]5C[C@@H]5F)cc4c3)c12 [Example 471, (1S,2S)-2-fluoro-N-(5-(6-fluoro-5-methyl-3-(methylthio)-1H-indazol-4-yl)pyrazolo[1,5-a]pyridin-2-yl)cyclopropane-1-carboxamide]
< 100 nM | O=C(Nc1cc2cc(-c3c(Cl)c(F)c(CF)c4[nH]ncc34)ccn2n1)[C@@H]1C[C@@H]1F [Example 634, (1S,2S)-N-(5-(5-chloro-6-fluoro-7-(fluoromethyl)-1H-indazol-4-yl)pyrazolo[1,5-a]pyridin-2-yl)-2-fluorocyclopropane-1-carboxamide]
< 100 nM | O=C(Nc1cc2cc(-c3c(Cl)c(F)c(N4CCC(F)C4)c4[nH]ncc34)ccn2n1)[C@@H]1C[C@@H]1F (stereo partly drawn) [Example 642, (1S,2S)-N-(5-(5-chloro-6-fluoro-7-(3-fluoropyrrolidin-1-yl)-1H-indazol-4-yl)pyrazolo[1,5-a]pyridin-2-yl)-2-fluorocyclopropane-1-carboxamide]
< 100 nM | CC1(F)CN(c2c(F)c(Cl)c(-c3ccn4nc(NC(=O)[C@@H]5C[C@@H]5F)cc4c3)c3cn[nH]c23)C1 [Example 632, (1S,2S)-N-(5-(5-chloro-6-fluoro-7-(3-fluoro-3-methylazetidin-1-yl)-1H-indazol-4-yl)pyrazolo[1,5-a]pyridin-2-yl)-2-fluorocyclopropane-1-carboxamide]
< 100 nM | O=C(Nc1cc2cc(-c3c(C(F)F)ccc4[nH]ncc34)ccn2n1)[C@@H]1C[C@@H]1F [Example 465, (1S,2S)-N-(5-(5-(difluoromethyl)-1H-indazol-4-yl)pyrazolo[1,5-a]pyridin-2-yl)-2-fluorocyclopropane-1-carboxamide]
< 100 nM | CC(C)(C)OC(=O)NC1CCC(Nc2c(F)c(Cl)c(-c3ccn4nc(NC(=O)[C@@H]5C[C@@H]5F)cc4c3)c3cn[nH]c23)CC1 (stereo partly drawn) [Example 516, tert-butyl (4-((5-chloro-6-fluoro-4-(2-((1S,2S)-2-fluorocyclopropane-1-carboxamido)pyrazolo[1,5-a]pyridin-5-yl)-1H-indazol-7-yl)amino)cyclohexyl)carbamate]
